Several values for one entry are separate records, joined by “and”; a condition that tells them apart may be missing. Identical values can stand only once.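 Cultured in 96-well plates, cells were exposed to test compound for 48 hours across five concentrations. GI50 = concentration required for 50% inhibition of growth. The concentration for full growth arrest is given as TGI.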 A value given as a limit tells only on which side of the number the result lay.

The values that follow come from PubChem BioAssay (NCI).

Some test systems named below: SK-MEL-28 melanoma; ACHN renal; U251 CNS; UACC-62 melanoma; OVCAR-3 ovarian; SK-OV-3 ovarian; UO-31 renal; NCI/ADR-RES ovarian; OVCAR-5 ovarian; MDA-MB-435.
Test in all cases: DTP human tumour cell line panel, 48 h

Turning to `CN(C)C(=O)SC1=C(c2c(Cl)cccc2Cl)C(=O)c2ccccc21`, the GI50 with SK-MEL-28 melanoma is 3.16 µM; in the assay with ACHN renal, 2.23 µM; with U251 CNS, 8.33 µM; with UACC-62 melanoma, 3.85 µM; in the assay with OVCAR-3 ovarian, 1.96 µM; in the assay with SK-OV-3 ovarian it was 18.6 µM. Moreover, the GI50 with UO-31 renal was 2.18 µM; in the assay with NCI/ADR-RES ovarian it was 9.42 µM; in the assay with OVCAR-5 ovarian, 15.5 µM; in the assay with MDA-MB-435 it was 4.54 µM. Further, the TGI with SK-MEL-28 melanoma is 8.89 µM; in the assay on ACHN renal it was 5.03 µM; with U251 CNS, 23 µM; in the assay with UACC-62 melanoma, 8.24 µM; in the assay on OVCAR-3 ovarian, 3.8 µM; in the assay with SK-OV-3 ovarian, 36.5 µM. Moreover, the TGI stood at 6.51 µM in the assay with UO-31 renal, 25.8 µM in the assay on NCI/ADR-RES ovarian, 30.8 µM in the assay on OVCAR-5 ovarian and 15.9 µM in the assay on MDA-MB-435.
Turning to `CN(C)CCCN1c2ccccc2Sc2ccc(Cl)cc21`, the GI50 with SK-MEL-28 melanoma is 2.03 µM and 3.65 µM; in the assay on ACHN renal it was 4.06 µM and 5.71 µM; with U251 CNS, 2.62 µM and 3.46 µM; in the assay on UACC-62 melanoma, 1.94 µM and 2.07 µM; in the assay with OVCAR-3 ovarian, 3.83 µM and 6.36 µM; with SK-OV-3 ovarian, 2.76 µM and 3.22 µM. Moreover, the GI50 was 2.89 µM and 3.46 µM with UO-31 renal; 11.9 µM and 9.23 µM in the assay with NCI/ADR-RES ovarian; 5.2 µM and 11.8 µM in the assay on OVCAR-5 ovarian; 1.94 µM and 2.21 µM in the assay with MDA-MB-435. For the same compound, the TGI with SK-MEL-28 melanoma is 4.69 µM and 14.4 µM; with ACHN renal, 14.8 µM and 18.3 µM; in the assay with U251 CNS, 7.9 µM and 14.4 µM; in the assay with UACC-62 melanoma, 4.01 µM and 5.11 µM; in the assay with OVCAR-3 ovarian, 12.6 µM and 18.8 µM; with SK-OV-3 ovarian it was 7.62 µM and 9.3 µM. The TGI with UO-31 renal is 13.7 µM and 17.2 µM; in the assay with NCI/ADR-RES ovarian, 25.1 µM and 22.4 µM; in the assay with OVCAR-5 ovarian, 17.6 µM and 24.8 µM; with MDA-MB-435 it was 4.04 µM and 6.09 µM.
Consider `CN(C)CCCC1(c2ccc(F)cc2)OCc2cc(-c3cncc4ccccc34)ccc21` (centres undefined), for which the GI50 in the assay with SK-MEL-28 melanoma was 1.75 µM; in the assay with ACHN renal it was 3.34 µM; with U251 CNS, 2.22 µM; in the assay on UACC-62 melanoma it was 2.24 µM; with OVCAR-3 ovarian, 2.94 µM; in the assay with SK-OV-3 ovarian, 5.48 µM. Further, the GI50 in the assay with UO-31 renal is 1.53 µM; with NCI/ADR-RES ovarian, 4.89 µM; in the assay on OVCAR-5 ovarian it was 5.23 µM; with MDA-MB-435, 1.71 µM. The total growth inhibition concentration (TGI) in the assay with SK-MEL-28 melanoma worked out at 3.24 µM; in the assay with ACHN renal, 12.5 µM; in the assay with U251 CNS, 5.7 µM; with UACC-62 melanoma, 5.17 µM; in the assay on OVCAR-3 ovarian it was 9.88 µM; with SK-OV-3 ovarian, 18.8 µM. Besides, the TGI in the assay with UO-31 renal is 4.41 µM; in the assay on NCI/ADR-RES ovarian, 18.8 µM; in the assay on OVCAR-5 ovarian it was 18.3 µM; in the assay on MDA-MB-435 it was 3.22 µM.
As to `Cc1cc(NC(=O)NC(=O)c2ccccc2N(C)C)ccc1Oc1ncc(Br)cn1`, the TGI was above 63.1 µM in the assay on SK-MEL-28 melanoma; above 68.1 µM with ACHN renal; 39.8 µM in the assay with U251 CNS; above 100 µM in the assay on UACC-62 melanoma; 11.1 µM in the assay with OVCAR-3 ovarian; 16.8 µM in the assay with SK-OV-3 ovarian. In addition, the TGI with UO-31 renal is above 63.1 µM; in the assay with NCI/ADR-RES ovarian, 24.6 µM; in the assay on OVCAR-5 ovarian it was above 67.5 µM; with MDA-MB-435, 2.84 µM. In addition, the GI50 in the assay with ACHN renal was 0.404 µM; with U251 CNS it was 0.436 µM; in the assay with UO-31 renal, 0.584 µM; in the assay on OVCAR-5 ovarian, 2.61 µM.
Consider `Cn1cc(CO)c2ccccc21`, for which the GI50 in the assay on SK-MEL-28 melanoma is 85.9 µM; in the assay on ACHN renal it was above 100 µM; with U251 CNS it was 40.3 µM; with UACC-62 melanoma it was 54.9 µM; in the assay with OVCAR-3 ovarian, 29.5 µM; with SK-OV-3 ovarian, 77.5 µM. Moreover, the GI50 with UO-31 renal is 4.28 µM; with NCI/ADR-RES ovarian, 27.1 µM; with OVCAR-5 ovarian, above 100 µM; with MDA-MB-435, 3.45 µM. Also, the TGI in the assay on SK-MEL-28 melanoma, in the assay on ACHN renal, with U251 CNS, in the assay with UACC-62 melanoma, with OVCAR-3 ovarian and in the assay with SK-OV-3 ovarian was above 100 µM each time. In addition, the TGI in the assay with UO-31 renal is above 100 µM; in the assay with NCI/ADR-RES ovarian, above 100 µM; with OVCAR-5 ovarian, above 100 µM; in the assay on MDA-MB-435, 21 µM.
With `COc1cc(O)c(C(C)=O)c(O)c1`, the concentration for total growth inhibition (TGI) in the assay on SK-MEL-28 melanoma, in the assay with ACHN renal, with U251 CNS, in the assay with UACC-62 melanoma, in the assay with OVCAR-3 ovarian and with SK-OV-3 ovarian was above 100 µM each time. For the same compound, the TGI in the assay with UO-31 renal, with NCI/ADR-RES ovarian, with OVCAR-5 ovarian and with MDA-MB-435 was above 100 µM throughout.
Regarding `COc1ccc2cc(-c3c(-c4ccncc4)nc(-c4ccc(S(C)=O)cc4C)n3C)ccc2c1` (centres undefined), the GI50 in the assay with SK-MEL-28 melanoma is above 25 µM; with ACHN renal it was 13.2 µM; in the assay with U251 CNS, above 23.2 µM; in the assay on UACC-62 melanoma it was 13.8 µM; in the assay with OVCAR-3 ovarian it was 14.3 µM; in the assay with SK-OV-3 ovarian, 11.3 µM. Besides, the GI50 in the assay with UO-31 renal was 6.37 µM; with NCI/ADR-RES ovarian, 24.3 µM; with OVCAR-5 ovarian, above 25 µM; in the assay with MDA-MB-435, 11.2 µM. Moreover, the TGI in the assay with SK-MEL-28 melanoma, with ACHN renal, in the assay on U251 CNS, in the assay with UACC-62 melanoma, in the assay with OVCAR-3 ovarian and with SK-OV-3 ovarian was above 25 µM in each case. Also, the TGI with UO-31 renal, in the assay with NCI/ADR-RES ovarian, in the assay on OVCAR-5 ovarian and with MDA-MB-435 was above 25 µM in each case.
As to `CC(C)(CO)N=Cc1ccccc1[O-].CC(C)(CO)N=Cc1ccccc1[O-].[Co+2]`, the GI50 was 58.6 µM in the assay with SK-MEL-28 melanoma; above 81.4 µM in the assay on ACHN renal; 74.9 µM in the assay on U251 CNS; 24.9 µM with UACC-62 melanoma; 36.3 µM in the assay on OVCAR-3 ovarian; above 100 µM in the assay on SK-OV-3 ovarian. Moreover, the GI50 in the assay with UO-31 renal was 44.9 µM; in the assay on NCI/ADR-RES ovarian it was above 100 µM; in the assay with OVCAR-5 ovarian, above 79.7 µM; in the assay with MDA-MB-435, 38.4 µM. The TGI in the assay with SK-MEL-28 melanoma is above 100 µM; in the assay with ACHN renal it was above 100 µM; with U251 CNS it was above 100 µM; in the assay on UACC-62 melanoma, above 85.3 µM; in the assay with OVCAR-3 ovarian, above 100 µM; with SK-OV-3 ovarian, above 100 µM. For the same compound, the TGI in the assay with UO-31 renal, in the assay with NCI/ADR-RES ovarian, in the assay with OVCAR-5 ovarian and in the assay on MDA-MB-435 was above 100 µM throughout.
